Measured values published in patent US20150144521A1, “STORAGE AIDS COMPRISING PLANT PROTECTANTS AND THEIR USE” (priority 2012, published 2015).

How the values were obtained:
[1] = system: potatoes; assay: sprouting on continued storage after large-scale treatment; type: in vivo
Experimental: Three to four repeated treatments of the product being stored are carried out in practice at regular time intervals.
A storage aid is therefore also suitable for sprouting suppression in seed potatoes for a limited period of time.
Therefore, seed potatoes must not, in principle, ever be treated directly with a growth regulator.

[2] = losses due to evaporation (FIG. 1); type: physicochemical; conditions: 30° C., after 30 days
Text: FIG. 1 is a graph showing losses of isopropyl-N-(m-chlorophenyl) carbamate due to evaporation;

[3] = 25° C.; cited from earlier work

Compound	sprouting ability after conventional intensive hot fumigation (FIG. 5) [1]	losses due to evaporation [2] [%]	vapor pressure [3] [mbar]
CC(C)OC(=O)Nc1cccc(Cl)c1 [CIPC, isopropyl-N-(m-chlorophenyl)-carbamate]	completely suppressed	0.03	
CC(C)OC(=O)Nc1ccccc1 [IPC, isopropyl-N-phenyl carbamate]			0.144
CCOC(=O)Nc1ccccn1 [ethyl-2-pyridyl carbamate]			0.1
trifluoromethyl-2-thienyl carbamate			5.5
